Assay results from article PMC9585939, “Unveiling a family of spiro-β-lactams with anti-HIV and antiplasmodial activity via phosphine-catalyzed [3+2] annulation of 6-alkylidene-penicillanates and allenoates” (Frontiers in Chemistry, 2022).
“Also recorded” adds a separate entry of the source.

Tests used:
[1] = Cellular viability assay (alamarBlue) in TZM-bl cells; format: cell-based; conditions: human, 50% cytotoxic concentration
Method: Before the antiviral activity screening, all spirocyclopentene-β-lactams were assayed for their in vitro cytotoxic activity (CC50) in TZM-bl cells (Table 4).
TZM-bl cells (AIDS Research and Reference Reagent Program, National Institutes of Health, United States) were cultured in complete growth medium consisting of Dulbecco’s Minimal Essential Medium (DMEM) supplemented with 10% fetal bovine serum (FBS), 100 U/ml of penicillin–streptomycin (Gibco/Invitrogen, United States), 1 mM of sodium pyruvate (Gibco/Invitrogen, United States), 2 mM of L-glutamine (Gibco/Invitrogen, United States), and 1 mM of non-essential amino acids (Gibco/Invitrogen, United States). Cell cultures were maintained at 37°C in 5% CO2.
The in vitro cytotoxicity of test compounds was evaluated in TZM-bl cells using alamarBlue cell viability reagent (Life Technologies, United States), according to the instructions of the manufacturer. The cells were cultured in the presence and absence of serial-fold dilutions of the test compounds. Each dilution of each compound was performed in triplicate wells. Medium controls (only growth medium), cell controls (cells without test compound), and cytotoxicity controls (a compound that kills cells) were employed in each assay.

HIV-1 SG3.1 = experiment: microbe, parasite or virus in culture; conditions: for Therapeutic index (CC50/IC50): CC50 in TZM-bl cells; for IC50 / IC90 / inhibition at 25 µg/mL: Human immunodeficiency virus 1, TZM-bl; for IC50 / IC90: 48 h; for IC50: read-out: IC50 HIV-1, TZM-bl cells, 48 h; for IC90: read-out: IC90 HIV-1; for inhibition at 25 µg/mL: read-out: MPI (%) 25 μg/mL
Excerpt: The HIV-1 SG3.1 is a reference subtype B strain that uses the CXCR4 coreceptor. It was obtained by transfection of HEK293T cells with pSG3.1 plasmid using jetPRIME transfection reagent (Polyplus-transfection SA, Illkirch, France), according to the instructions of the manufacturer.
Briefly, TZM-bl cells were infected with 200 TCID50 of HIV-1 or HIV-2 in the presence of serial-fold dilutions of the compounds in the growth medium, supplemented with diethylaminoethyl-dextran (DEAE-dextran). After 48 h of infection, luciferase expression was quantified with Pierce Firefly Luc One-Step Glow Assay Kit (ThermoFisher Scientific, Rockford, United States), according to the instructions of the manufacturer. For each compound dilution, the assay was set up in triplicate wells. Virus controls, cell controls, and inhibitors controls (drugs with a known action against each virus) were employed.

| Structure (SMILES) | CC50 [1] [µM] | Therapeutic index (CC50/IC50) (HIV-1 SG3.1; HIV-1) | IC50 (HIV-1 SG3.1) [µM] | IC90 (HIV-1 SG3.1) [µM] | inhibition at 25 µg/mL (HIV-1 SG3.1) [%] | melting point [°C] | anti-HIV activity (in words) (HIV-1 SG3.1; HIV-1) |
| --- | --- | --- | --- | --- | --- | --- | --- |
| CC1(C)SC2N(C(=O)C23CC=C(C(=O)OCc2ccc(F)cc2)C3C(=O)c2ccccc2)C1C(=O)OC(c1ccccc1)c1ccccc1 (stereo not shown) [Compound 9l, (1’R,2’R)-Benzhydryl spiro[(2-benzoyl-3-(4-fluorobenzyloxycarbonyl)cyclopent-3-ene)-1’,6-penicillanate]] | 55.8 | 502.97 | 0.111 | 0.221 | 100 | 67.2 to 69.3 | – |
| CC1(C)SC2N(C(=O)C23C(C(=O)OCc2ccccc2)=CCC3C(=O)c2ccc(F)cc2)C1C(=O)OC(c1ccccc1)c1ccccc1 (stereo not drawn) [Compound 13a, (1′R,2′R)-benzhydryl spiro[(2-(4-fluorobenzoyl)-5-benzyloxycarbonylcyclopent-4-ene)-1′,6-penicillanate]] | 64.8 | – | – | – | 0 | 73.9 to 75.9 | – |
| Cc1ccc(COC(=O)C2=CCC3(C(=O)N4C(C(=O)OC(c5ccccc5)c5ccccc5)C(C)(C)SC43)C2C(=O)c2ccccc2)cc1 (stereo not shown) [Compound 9j, (1’R,2’R)-Benzhydryl spiro[(2-benzoyl-3-(4-methylbenzyloxycarbonyl)cyclopent-3-ene)-1’,6-penicillanate]] | 60 | 674.49 | 0.089 | 0.209 | 93 | 59 to 60.8 | – |
| CC1(C)SC2N(C(=O)C23C(C(=O)OCc2ccccc2)=CCC3C(=O)c2ccc([N+](=O)[O-])cc2)C1C(=O)OC(c1ccccc1)c1ccccc1 (stereo not shown) [Compound 13d, (1’R,2’R)-Benzhydryl spiro[(2-(4-nitrobenzoyl)-5-benzyloxycarbonylcyclopent-4-ene)-1’,6-penicillanate]] | 73.8 | – | – | – | 0 | 122.7 to 124.7 | – |
| CC1(C)SC2N(C(=O)C23CC=C(C(=O)OCC=Cc2ccccc2)C3C(=O)c2ccc(Cl)cc2)C1C(=O)OC(c1ccccc1)c1ccccc1 (stereo not shown) [Compound 14f, (1’R,2’R)-Benzhydryl spiro[(2-(4-chlorobenzoyl)-3-cinnamyloxycarbonylcyclopent-3-ene)-1’,6-penicillanate]] | 87.5 | 1305.67 | 0.067 | 0.198 | 97 | 81.7 to 83.7 | – |
| CC1(C)SC2N(C(=O)C23CC=C(C(=O)OCc2ccccc2)C3C(=O)c2ccc([N+](=O)[O-])cc2)C1C(=O)OC(c1ccccc1)c1ccccc1 (stereo not shown) [Compound 12d, (1’R,2’R)-Benzhydryl spiro[(2-(4-nitrobenzoyl)-3-benzyloxycarbonylcyclopent-3-ene)-1’,6-penicillanate]] | 53 | 297.75 | 0.178 | 0.413 | 80 | 122 to 123.7 | – |
| CC(C)(C)c1ccc(OC(=O)C2=CCC3(C(=O)N4C(C(=O)OC(c5ccccc5)c5ccccc5)C(C)(C)SC43)C2C(=O)c2ccccc2)cc1 (stereo not shown) [Compound 9b, (1’R,2’R)-Benzhydryl spiro[(2-benzoyl-3-(4-tert-butylphenoxycarbonyl)cyclopent-3-ene)-1’,6-penicillanate]] | 54.7 | – | – | – | 0 | 206.7 to 208.9 | – |
| CC1(C)SC2N(C(=O)C23CC=C(C(=O)OCc2ccc([N+](=O)[O-])cc2)C3C(=O)c2ccccc2)C1C(=O)OC(c1ccccc1)c1ccccc1 (stereo not shown) [Compound 9h, (1’R,2’R)-Benzhydryl spiro[(2-benzoyl-3-(4-nitrobenzyloxycarbonyl)cyclopent-3-ene)-1’,6-penicillanate]] | 56 | – | – | – | 0 | 81.2 to 83.1 | inactive; also recorded: total loss of antiviral activity |
| CC1(C)SC2N(C(=O)C23C(C(=O)OCc2ccccc2)=CCC3C(=O)c2ccc(Br)cc2)C1C(=O)OC(c1ccccc1)c1ccccc1 (stereo not shown) [Compound 13c, (1’R,2’R)-Benzhydryl spiro[(2-(4-bromobenzoyl)-5-benzyloxycarbonylcyclopent-4-ene)-1’,6-penicillanate]] | 50.6 | – | – | – | 0 | 115.9 to 117.9 | – |
| CC1(C)SC2N(C(=O)C23C(C(=O)OCc2ccccc2)=CCC3C(=O)c2ccc3ccccc3c2)C1C(=O)OC(c1ccccc1)c1ccccc1 (stereo not shown) [Compound 13h, (1’R,2’R)-Benzhydryl spiro[(2-naphthoyl-5-benzyloxycarbonylcyclopent-4-ene)-1’,6-penicillanate]] | 56.2 | – | – | – | 0 | 90.8 to 92.8 | – |
| CC1(C)SC2N(C(=O)C23CC=C(C(=O)OCc2ccccc2)C3C(=O)c2ccc3ccccc3c2)C1C(=O)OC(c1ccccc1)c1ccccc1 (stereo not shown) [Compound 12h, (1’R,2’R)-Benzhydryl spiro[(2-naphthoyl-3-benzyloxycarbonylcyclopent-3-ene)-1’,6-penicillanate]] | 73.6 | – | – | – | 0 | 81.5 to 83.5 | – |
| CC1(C)SC2N(C(=O)C23CC=C(C(=O)OC(c2ccccc2)c2ccccc2)C3C(=O)c2ccccc2)C1C(=O)OC(c1ccccc1)c1ccccc1 (stereo not shown) [Compound 9g, (1’R,2’R)-Benzhydryl spiro[(2-benzoyl-3-benzhydryloxycarbonylcyclopent-3-ene)-1’,6-penicillanate]] | 45.3 | – | – | – | 0 | 83.4 to 85.2 | – |
| CC1(C)SC2N(C(=O)C23C(C(=O)OCc2ccccc2)=CCC3C(=O)c2ccc(C(F)(F)F)cc2)C1C(=O)OC(c1ccccc1)c1ccccc1 (stereo not shown) [Compound 13e, (1’R,2’R)-Benzhydryl spiro[(2-(4-trifluoromethylbenzoyl)-5-benzyloxycarbonylcyclopent-4-ene)-1’,6-penicillanate]] | 54.7 | – | – | – | 0 | 141.1 to 143.1 | – |
| CC1(C)SC2N(C(=O)C23CC=C(C(=O)OCc2ccccc2)C3C(=O)c2ccc(C(F)(F)F)cc2)C1C(=O)OC(c1ccccc1)c1ccccc1 (stereo not shown) [Compound 12e, (1’R,2’R)-Benzhydryl spiro[(2-(4-trifluoromethylbenzoyl)-3-benzyloxycarbonylcyclopent-3-ene)-1’,6-penicillanate]] | 64.4 | 49.39 | 1.3 | 1.5 | 76 | 134.1 to 135.5 | – |
| CC1(C)SC2N(C(=O)C23CC=C(C(=O)OCC=Cc2ccccc2)C3C(=O)c2ccc(Br)cc2)C1C(=O)OC(c1ccccc1)c1ccccc1 (stereo not shown) [Compound 14i, (1’R,2’R)-Benzhydryl spiro[(2-(4-bromobenzoyl)-3-cinnamyloxycarbonylcyclopent-3-ene)-1’,6-penicillanate]] | 66.9 | 467.62 | 0.143 | 0.305 | 95 | 89.1 to 91.1 | – |
| CC1(C)SC2N(C(=O)C23CC=C(C(=O)OCc2ccccc2)C3C(=O)c2ccc(Cl)cc2)C1C(=O)OC(c1ccccc1)c1ccccc1 (stereo not shown) [Compound 12b, (1’R,2’R)-Benzhydryl spiro[(2-(4-chlorobenzoyl)-3-benzyloxycarbonylcyclopent-3-ene)-1’,6-penicillanate]] | 56 | 888.73 | 0.063 | 0.104 | 92 | 145.2 to 146.5 | – |
| COc1cccc(OC(=O)C2=CCC3(C(=O)N4C(C(=O)OC(c5ccccc5)c5ccccc5)C(C)(C)SC43)C2C(=O)c2ccccc2)c1 (stereo not shown) [Compound 9c, (1’R,2’R)-Benzhydryl spiro[(2-benzoyl-3-(3-methoxyphenoxycarbonyl)cyclopent-3-ene)-1’,6-penicillanate]] | 58.1 | – | – | – | 0 | 67.8 to 69.7 | – |
| Cc1ccc(COC(=O)C2=CCC3(C(=O)N4C(C(=O)OC(c5ccccc5)c5ccccc5)C(C)(C)SC43)C2C(=O)c2ccc(Cl)cc2)cc1 (stereo not shown) [Compound 14e, (1’R,2’R)-Benzhydryl spiro[(2-(4-chlorobenzoyl)-3-(4-methylbenzyloxycarbonyl)cyclopent-3-ene)-1’,6-penicillanate]] | 100 | 474.41 | 0.211 | 0.72 | 94 | 79.5 to 81.5 | – |
